Reference: patent US20260306460A1, “COMPOSITION FOR REMOVING AND INHIBITING SENESCENT CELLS, AND USES THEREOF” (LIFECEUTIX CO., LTD., priority 2023, published 2026)

Assays:
[1] = test system: non-senescent proliferating human cells; experiment: Effect on non-senescent (proliferating) human cells; format: cell-based; settings: normally proliferating foreskin cells; 30 μM, 3 days
Text: Based on the results of Example 10 of WO2023-085787 A1, compounds that induce the death of senescent cells through a mechanism similar to LX-112, unlike existing senescent cell removers such as ABT-263, were screened based on HMGN1. […] The following test compounds were synthesized by and purchased from Medchemexpress, Selleckchem, Cayman, Medkoo, Sigma, Molport, Enzo, TCI, Santa Cruz, REONSIMI, Abcam, Alfa Aesar, APExBIO, BOCSCI, Merck, Thermo Fisher Scientific, R&D Systems, ChemFaces, Aobious, etc. […] In cells in which senescence was not induced by treatment with the control group (DMSO), the amount of HMGN1 above the effective value (sensitivity: 35 pg/ml), analysis limit, was not detected in both untreated and treated conditions with the test compound. On the other hand, in cells where senescence was induced by treatment with doxorubicin, the amount of HMGN1 was measured at 80 to 90 pg/ml. […]
After 3 days, cell viability was measured using CellTiter-Glo Luminescent Cell Viability Assay (Promega) or light microscopy.
Using the same method as Example 11, compounds that induce senescent cell death through a mechanism similar to that of LX-112 (ethaselen (1,2-[bis(1,2-benzisoselenazolone-3 (2H)-ketone)]ethane)) were screened based on HMGN1 and others. […] On the other hand, in cells senescent with doxorubicin, an amount of HMGN1 of […] was measured. […]

senescent A549 cells = experiment: Survival of senescent A549 cells treated with supernatant from death-induced cancer cells, Example 14; format: cell-based, human; settings: for viability at 30 µM: Homo sapiens
Protocol: In the same way as Examples 12 and 13, senescence of cancer (A549) cells was induced by treatment with doxorubicin or the control group (DMSO), and the cells were cultured. The cells were treated with LX-405 at a concentration of 30 μM. 3 days later, cell viability was measured using CellTiter-Glo Luminescent Cell Viability Assay (Promega) or an optical microscope. In the same manner as in Example 13, the medium supernatants comprising secreted fluid from normally proliferating and senescent cancer cells was obtained. Normally proliferating and senescent-induced cancer cells were treated with the medium supernatants.
Furthermore, other test compounds were used in the same manner in Example 12 above at high concentrations of 30 μM, 90 μM, and 270 μM, respectively, and the cultured medium supernatant comprising secreted fluid from aged cancer cells that were killed were obtained. As a result of measuring the degree of death of aged cancer cells, it was confirmed that aged cancer cells can be effectively removed, as shown in Example 12.

[2] = test system: mice with peritoneal fibrosis induced by chlorhexidine gluconate; experiment: Chlorhexidine gluconate (CHG) peritoneal fibrosis in mice, Example 20; format: in vivo, mouse
Text: The anti-fibrosis activity of LX-5701 was confirmed using the same method as in Example 6-2 of WO2023-085787 A1. The thickness of the peritoneal mesothelial cell layer was quantitatively evaluated in mice with peritoneal fibrosis induced by chlorhexidine gluconate (CHG) under untreated and LX-5701-treated conditions.

SMILES | induced death of cells [1] | Survival (senescent A549 cells; A549, supernatant from No Cells) | viability at 30 µM (senescent A549 cells; A549, A549, supernatant from death-induced proliferating cells) [%] | viability at 30 µM (senescent A549 cells; A549, A549, supernatant from death-induced senescent cells) [%] | Submesothelial Thickness [2]
COC(=O)c1ccc([C@H]2c3[nH]c4ccccc4c3C[C@H](C(=O)OC)N2C(=O)CCl)cc1 [LX-405] | induced the death of most cells | 98.2 (±2.8) % | 78.8 | 72.5 | 
O=C1C2CCN(CC2)C1CNC(=O)C(F)(F)F (centres unmarked) [LX-5701] |  |  |  |  | 41.8 (±7.5) μm
